Measurements reported in ChEMBL document CHEMBL1201862, “PubChem BioAssay data set” (2004).
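Compound exposure: 48 hours, 5 concentrations, 96-well plates. GI50 = concentration required for 50% inhibition of growth.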 Active and inactive are the calls of the source. No stated cut-off is given here; in the data, active = GI50 up to about 1.1 µM and inactive = higher.

Experiments:
Test in all cases: NCI tumour cell line growth inhibition, 48 h
786-0 = system: 786-0
ACHN = system: ACHN
CAKI-1 = system: CAKI-1
CCRF-CEM = system: CCRF-CEM
DU-145 = system: DU-145
HCT-116 = system: HCT-116
HOP-62 = system: HOP-62
Hs-578T = system: Hs-578T
KM12 = system: KM12
NCI-H460 = system: NCI-H460
NCI/ADR-RES = system: NCI/ADR-RES
OVCAR-4 = system: OVCAR-4
OVCAR-5 = system: OVCAR-5
SK-MEL-2 = system: SK-MEL-2
SW-620 = system: SW-620
TK-10 = system: TK-10
U-251 = system: U-251
UO-31 = system: UO-31
RPMI-8226 = system: RPMI-8226

Measured: GI50

COC(=O)c1ccccc1C1CN=NC12Cc1cc3c(cc1C2=O)CCC3 (configuration not stated)
inactive: 786-0 > 100 µM | ACHN > 100 µM | CAKI-1 > 100 µM | CCRF-CEM 29.2 µM | DU-145 > 100 µM | HCT-116 36.3 µM | HOP-62 > 100 µM | Hs-578T > 100 µM | KM12 32.1 µM | NCI-H460 39.9 µM | NCI/ADR-RES 37.8 µM | OVCAR-4 44.6 µM | OVCAR-5 > 100 µM | SK-MEL-2 > 100 µM | SW-620 67.6 µM | TK-10 > 100 µM | U-251 70.3 µM | UO-31 50.5 µM

Cc1c(-c2ccccn2)ccc2ccccc12
inactive: 786-0 77.3 µM | ACHN 52.7 µM | CAKI-1 45 µM | CCRF-CEM 28.2 µM | DU-145 > 100 µM | HCT-116 43.4 µM | HOP-62 > 100 µM | Hs-578T > 100 µM | KM12 82.8 µM | NCI-H460 42.4 µM | NCI/ADR-RES 45.9 µM | OVCAR-5 > 100 µM | RPMI-8226 19 µM | SW-620 80.4 µM | TK-10 45.2 µM | U-251 93.5 µM | UO-31 32.7 µM

C1CSCCCSCCSCCCSC1
inactive: 786-0 > 100 µM | ACHN > 100 µM | CAKI-1 > 100 µM | DU-145 > 100 µM | HCT-116 > 100 µM | HOP-62 > 100 µM | Hs-578T > 100 µM | NCI-H460 > 100 µM | OVCAR-4 > 100 µM | OVCAR-5 > 100 µM | RPMI-8226 > 100 µM | SK-MEL-2 > 100 µM | SW-620 > 100 µM | TK-10 > 100 µM | U-251 > 100 µM | UO-31 > 100 µM

NC1=C(N2CCCCC2)C(=O)NC2=N/C(=C\c3ccccc3)C(=O)N21
inactive: 786-0 > 100 µM | ACHN > 100 µM | CAKI-1 > 100 µM | CCRF-CEM > 100 µM | DU-145 > 100 µM | HCT-116 > 100 µM | Hs-578T > 100 µM | KM12 > 100 µM | NCI-H460 > 100 µM | NCI/ADR-RES > 100 µM | OVCAR-4 86.3 µM | OVCAR-5 > 100 µM | RPMI-8226 > 100 µM | SW-620 > 100 µM | TK-10 > 100 µM | U-251 > 100 µM | UO-31 > 100 µM

CN(C)c1ccc(C2C(Cl)C(=O)N2NC(=O)c2c(Cl)c(Cl)c(Cl)c(Cl)c2-c2nc3ccccc3[nH]2)cc1 (configuration not stated)
inactive: 786-0 2.56 µM | ACHN 15.8 µM | CAKI-1 15.6 µM | CCRF-CEM 3.36 µM | DU-145 6.92 µM | HCT-116 5.2 µM | Hs-578T 33.3 µM | KM12 17.9 µM | NCI/ADR-RES 21.6 µM | OVCAR-5 31.3 µM | SK-MEL-2 21.8 µM | SW-620 4.29 µM | UO-31 19.4 µM

CN(/N=C/c1cccs1)c1ccc([N+](=O)[O-])cc1[N+](=O)[O-]
inactive: 786-0 > 100 µM | ACHN > 100 µM | CAKI-1 > 100 µM | CCRF-CEM > 100 µM | DU-145 > 100 µM | HCT-116 > 100 µM | HOP-62 > 100 µM | Hs-578T > 100 µM | KM12 > 100 µM | NCI-H460 > 100 µM | NCI/ADR-RES > 100 µM | OVCAR-4 > 100 µM | RPMI-8226 > 100 µM | SW-620 > 100 µM | TK-10 > 100 µM | U-251 > 100 µM | UO-31 > 100 µM

CCOC(=O)/C(C#N)=C/c1ccc(CO)o1
inactive: 786-0 > 100 µM | ACHN > 100 µM | CAKI-1 > 100 µM | DU-145 > 100 µM | HCT-116 > 100 µM | HOP-62 > 100 µM | Hs-578T > 100 µM | KM12 > 100 µM | NCI-H460 > 100 µM | NCI/ADR-RES > 100 µM | OVCAR-4 > 100 µM | OVCAR-5 > 100 µM | RPMI-8226 > 100 µM | SW-620 > 100 µM | TK-10 > 100 µM | U-251 > 100 µM

O=Cc1ccc(OC[C@H]2COC(=O)N2)cc1
inactive: 786-0 > 100 µM | ACHN > 100 µM | CAKI-1 > 100 µM | CCRF-CEM > 100 µM | DU-145 > 100 µM | HCT-116 > 100 µM | HOP-62 > 100 µM | Hs-578T > 100 µM | KM12 37.8 µM | NCI-H460 > 100 µM | NCI/ADR-RES > 100 µM | OVCAR-4 > 100 µM | OVCAR-5 > 100 µM | SK-MEL-2 > 100 µM | SW-620 > 100 µM | TK-10 > 100 µM | U-251 > 100 µM | UO-31 > 100 µM

O=c1c2ccccc2nc(N/N=C/c2ccc([N+](=O)[O-])cc2)n1-c1ccccc1
inactive: 786-0 5.37 µM | ACHN 13.3 µM | CAKI-1 21.6 µM | CCRF-CEM > 100 µM | DU-145 26.9 µM | HCT-116 5.05 µM | HOP-62 13.3 µM | Hs-578T 6.35 µM | KM12 36.3 µM | NCI-H460 > 100 µM | NCI/ADR-RES 13.4 µM | OVCAR-4 6.1 µM | OVCAR-5 > 100 µM | RPMI-8226 > 100 µM | TK-10 18 µM | U-251 15.1 µM | UO-31 > 100 µM

N#Cc1cnn2cc[nH]c12
inactive: 786-0 > 100 µM | ACHN > 100 µM | CAKI-1 > 100 µM | CCRF-CEM > 100 µM | DU-145 > 100 µM | HCT-116 > 100 µM | HOP-62 > 100 µM | Hs-578T > 100 µM | KM12 > 100 µM | NCI-H460 > 100 µM | NCI/ADR-RES > 100 µM | OVCAR-4 > 100 µM | OVCAR-5 > 100 µM | SK-MEL-2 > 100 µM | SW-620 > 100 µM | TK-10 > 100 µM | U-251 > 100 µM | UO-31 > 100 µM

O=c1[nH]c(=O)n(C2CC(O)C(CO)O2)cc1/N=N/NCCc1ccccc1 (configuration not stated)
inactive: 786-0 > 100 µM | ACHN > 100 µM | CAKI-1 > 100 µM | CCRF-CEM > 100 µM | DU-145 > 100 µM | HCT-116 > 100 µM | HOP-62 > 100 µM | Hs-578T > 100 µM | KM12 > 100 µM | NCI-H460 > 100 µM | NCI/ADR-RES > 100 µM | OVCAR-4 > 100 µM | OVCAR-5 > 100 µM | RPMI-8226 > 100 µM | TK-10 > 100 µM | U-251 > 100 µM | UO-31 > 100 µM

CC1(C)C2CCC3=C(CCC4(C)C5C[C@](C)(C(=O)O)CC[C@]5(C)CC[C@]34C)[C@@]2(C)CC[C@@H]1O (some centres not stated)
inactive: 786-0 15.9 µM | ACHN 12.1 µM | CAKI-1 18.9 µM | CCRF-CEM 14.9 µM | DU-145 18.3 µM | HCT-116 16.6 µM | HOP-62 17 µM | Hs-578T 31 µM | KM12 15.4 µM | NCI-H460 15.2 µM | NCI/ADR-RES 17.9 µM | OVCAR-4 16.3 µM | OVCAR-5 49.8 µM | RPMI-8226 20.9 µM | SW-620 16.6 µM | TK-10 17.8 µM | U-251 13.1 µM | UO-31 29.4 µM
